Assay results reported in US20230321186A1, “Mucin Glycans as Antifungal Agents” (Massachusetts Institute of Technology, priority 2022, published 2023).

How the values were obtained:
Type in all cases: cell-based, Candida albicans
C. albicans [1] = test: Filamentation assay (hyphal growth, phase-contrast images); conditions: 0.4%, RPMI, 37° C., 8 h, vs monosaccharide pool and medium alone
Description: Hyphal growth of C. albicans was induced by diluting cells to OD600=0.05 into prewarmed hyphae-inducing medium as indicated and incubating at 37° C. (200 rpm) in a glass-bottom, 96-well plate. Cells were grown in hyphae-inducing medium for several hours, as described in BRIEF DESCRIPTION OF THE DRAWINGS. Images were acquired with a confocal laser scanning microscope (Zeiss, Oberkochen, Germany; LSM 800) equipped with a ×63/1.4 NA oil-immersion or a 25× objective. Images were analyzed using Zeiss ZEN v.2.1. Representative micrographs are shown.

C. albicans SC5314 [2] = test: RT-qPCR analysis of C. albicans gene expression; conditions: for suppression of filamentation-associated genes: broader range of genes, six synthetic glycans, FIG. 9E; for effect of the added sugar on the gene regulatory activity (YWP1, ECE1) of the unmodified Core: compared with Core 1 or Core 2; for ECE1 transcription / YWP1 transcription: modified Core structures, FIGS. 9C-9D; for YWP1 expression: 0.1% (w/v) synthetic glycan
Description: For RNA extraction from C. albicans grown in the presence or absence of mucin glycans, 100 μL of RPMI or 0.1% w/v MUC5AC glycans in RPMI were inoculated with a 1:50 dilution of an overnight culture of strain SC5314 and incubated at 37° C. for the time indicated. Total RNA was extracted with the MasterPure RNA Purification Kit (Lucigen, Middleton, WI) and residual DNA was removed using the Turbo DNA-free kit (Ambion, Austin, TX). The integrity of the total RNA was assessed using an Agilent 2100 Bioanalyzer (Agilent Technologies, Santa Clara, CA). rRNA was removed using the Ribo-Zero® rRNA Removal Kit (Yeast; Epicentre).
A list of the primers used in this study is provided in Table 1. qPCR with reverse transcription (RT-qPCR) was performed using a two-step method. First-strand cDNA was synthesized from total RNA using the […] First Strand cDNA Synthesis kit (New England Biolabs, Ipswich, MA). The cDNA was used as template for RT-qPCR using a SYBR PowerUp Master Mix kit (Applied Biosystems, Life Technologies) on a Roche LightCycler 480 real-time PCR system. The ACT1 and 18S rRNA genes were used as endogenous controls as specified. […] Changes in gene expression were calculated based on mean change in qPCR cycle threshold (ΔCt) using the ΔΔCt method (fold change=[…]).

C. albicans [3] = test: C. albicans growth (growth curves); conditions: 0.1% (w/v)
Description: Strains were maintained on yeast extract peptone dextrose (YPD) agar (2% Bacto peptone, 2% glucose, 1% yeast extract, 2% agar) and grown at 30° C. Single colonies were inoculated into YPD broth and grown with shaking overnight at 30° C. prior to each experiment. Experiments were performed with Gibco RPMI 1640 medium (Life Technologies, Carlsbad, CA; #31800-089) buffered with 165 mM 3-(N-morpholino)propanesulfonic acid (MOPS) and supplemented with 0.2% NaHCO3 and 2% glucose; YPD medium with 10% fetal bovine serum; GlcNAc medium (0.5% N-acetylglucosamine, 0.5% peptone, 0.3% KH2PO4); Spider medium (1% nutrient broth, 1% D-mannitol, 2 g K2HPO4, 50 mg/mL arginine, 10 mg/mL histidine, and 50 mg/mL tryptophan); or Lee's medium^45. Growth curves were performed in Synthetic Defined (SD)+0.004% (w/v) L-Arginine+0.0025% (w/v) L-Leucine media with 2% glucose.

C. albicans SC5314 [4] = test: RT-qPCR analysis of C. albicans gene expression; conditions: for ECE1 expression: 0.1% and 0.4%; for YWP1 expression on concentration increase: increase to 0.4% (w/v)

| SMILES | filamentation, synthetic glycan structures (C. albicans [1]) | suppression of filamentation-associated genes (C. albicans SC5314 [2]) | effect of the added sugar on the gene regulatory activity (YWP1, ECE1) of the unmodified Core (C. albicans SC5314 [2]) | ECE1 transcription (C. albicans SC5314 [2]) | YWP1 transcription (C. albicans SC5314 [2]) | YWP1 expression (C. albicans SC5314 [2]) | toxic effects, as measured by C. albicans growth (C. albicans [3]) | ECE1 expression (C. albicans SC5314 [4]) | YWP1 expression on concentration increase (C. albicans SC5314 [4]) |
| --- | --- | --- | --- | --- | --- | --- | --- | --- | --- |
| CO[C@H]1O[C@H](CO)[C@H](O)[C@H](O[C@@H]2O[C@H](CO)[C@H](O)[C@H](O)[C@H]2O[C@@H]2O[C@@H](C)[C@@H](O)[C@@H](O)[C@@H]2O)[C@H]1NC(C)=O [Core 1+fucose, Methyl α-L-fucopyranosyl-(1→2)-β-D-galactopyranosyl-(1→3)-2-acetamido-2-deoxy-α-D-galactopyranoside] | most potently blocked filamentation | strongest suppression | did not measurably alter | downregulating ECE1 | transcriptionally upregulated YWP1 |  |  |  |  |
| CO[C@H]1O[C@H](CO)[C@H](O)[C@H](O[C@@H]2O[C@H](CO)[C@H](O)[C@H](O[C@]3(C(=O)[O-])C[C@H](O)[C@@H](NC(C)=O)[C@H]([C@H](O)[C@H](O)CO)O3)[C@H]2O)[C@H]1NC(C)=O.[Na+] [Core 1+sialic acid, Methyl 3-O-(sodium 5-acetamido-3,5-dideoxy-D-glycero-α-D-galacto-2-nonulopyranosylonate)-β-D-galactopyranosyl-(1→3)-2-acetamido-2-deoxy-α-D-galactopyranoside] | less effective at suppressing filamentation | weakest effect | dampened the gene regulatory response of Core 1 | downregulating ECE1 | transcriptionally upregulated YWP1 |  |  |  |  |
| CO[C@H]1O[C@H](CO)[C@H](O)[C@H](O[C@@H]2O[C@H](CO)[C@H](O)[C@H](O)[C@H]2O)[C@H]1NC(C)=O [Core 1, Methyl β-D-galactopyranosyl-(1→3)-2-acetamido-2-deoxy-α-D-galactopyranoside] | most potently blocked filamentation | strongest suppression |  |  |  | upregulated YWP1 expression at 0.1% (w/v) to a similar degree as the intact mucin pool | Neither Core 1 nor Core 2 showed toxic effects | suppressed ECE1 expression at 0.1% and 0.4%, albeit less strongly than the mucin glycan pool | did not significantly alter YWP1 expression |
| CO[C@H]1O[C@H](CO[C@@H]2O[C@H](CO)[C@@H](O)[C@H](O)[C@H]2NC(C)=O)[C@H](O)[C@H](O[C@@H]2O[C@H](CO)[C@H](O)[C@H](O)[C@H]2O[C@@H]2O[C@@H](C)[C@@H](O)[C@@H](O)[C@@H]2O)[C@H]1NC(C)=O [Core 2+fucose, Methyl α-L-fucopyranosyl-(1→2)-β-D-galactopyranosyl-(1→3)-[2-acetamido-2-deoxy-β-D-glucopyranosyl-(1→6)]-2-acetamido-2-deoxy-α-D-galactopyranoside] |  |  | did not measurably alter | downregulating ECE1 | transcriptionally upregulated YWP1 |  |  |  |  |
| CO[C@H]1O[C@H](CO[C@@H]2O[C@H](CO)[C@@H](O[C@@H]3O[C@H](CO)[C@H](O)[C@H](O)[C@H]3O)[C@H](O)[C@H]2NC(C)=O)[C@H](O)[C@H](O[C@@H]2O[C@H](CO)[C@H](O)[C@H](O)[C@H]2O)[C@H]1NC(C)=O [Core 2+galactose, Methyl β-D-galactopyranosyl-(1→4)-2-acetamido-2-deoxy-β-D-glucopyranosyl-(1→6)-[β-D-galactopyranosyl-(1→3)]-2-acetamido-2-deoxy-α-D-galactopyranoside] | most potently blocked filamentation | strongest suppression | did not significantly alter Core 2 activity | downregulating ECE1 | transcriptionally upregulated YWP1 |  |  |  |  |
| CO[C@H]1O[C@H](CO[C@@H]2O[C@H](CO)[C@@H](O)[C@H](O)[C@H]2NC(C)=O)[C@H](O)[C@H](O[C@@H]2O[C@H](CO)[C@H](O)[C@H](O)[C@H]2O)[C@H]1NC(C)=O [Core 2, Methyl β-D-galactopyranosyl-(1→3)-[2-acetamido-2-deoxy-β-D-glucopyranosyl-(1→6)]-2-acetamido-2-deoxy-α-D-galactopyranoside] |  |  |  |  |  | upregulated YWP1 expression at 0.1% (w/v) to a similar degree as the intact mucin pool | Neither Core 1 nor Core 2 showed toxic effects | suppressed ECE1 expression at 0.1% and 0.4%, albeit less strongly than the mucin glycan pool | did not significantly alter YWP1 expression |
